According to US7041658B2, “Method of inhibiting hair growth” (Kao Corporation, priority 1998, dated 2006):

Experiments:
[1] = test system: elastase; assay: Elastase activity-inhibiting test in cultured human fibroblast; format: biochemical; settings: human fibroblast enzyme solution, substrate N-succinyl-(Ala)3-p-nitroanilide, 37° C. 1 hour
Description: (§1) Normal human fibroblasts commercially available from Dainippon Pharmaceutical Co., Ltd. were subcultured in a DMEM containing a 10% fetal bovine serum and used in this test. The cells separated from a Petri dish with a rubber policeman were suspended in physiological saline, collected by means of a low-speed centrifugal separator and washed 3 times with physiological saline. The thus-treated cells were suspended in a 0.1% Triton X-100/0.2 M Tris-HCl buffer (pH: 8.0) and ultrasonically disrupted to use as an enzyme solution.
125 mM N-Succinyl-(Ala)3-p-nitroanilide was used as a substrate for the measurement of enzyme activity, and each subject (1 μl; its concentration is shown in Table 1) was added to the enzyme solution (100 μl) to conduct a reaction at 37° C. for 1 hour. The reaction was stopped by adding acetic acid (5 μl). The amount of nitroaniline formed was determined by measuring an absorbance at 405 nm by means of a spectrophotometer.

[2] = test system: regeneration of mouse back hair; assay: Test of inhibiting regeneration of mouse back hair; format: in vivo; settings: applied twice a day 100 μl/time to shaved back, C3H mice, vs solvent control
Experimental: Back hair of a group of 5 C3H mice aged 6 weeks was shaved over 2×4 cm^2 by means of an electric hair clipper and an electric shaver so as not to damage their skins. Each subject was applied to the shaved sites twice a day in an amount of 100 μl/time over 4 weeks. Only the solvent was applied to a control group. After 3 weeks, a photograph of each shaved site was taken at a fixed magnification for observing the state of regenerated hair to compare a regenerated hair area ratio (regenerated hair area/shaved area) of the test group with that of the control group.

[3] = molecular target: T1, neutral endopeptidase (Homo sapiens, UniProt P08473); assay: Neutral endopeptidase activity-inhibiting test in cultured human fibroblast; format: biochemical; settings: human fibroblast enzyme solution, substrate glutaryl-Ala-Ala-Phe-4-methoxy-2-naphthylamine, read-out: Percent inhibition of neutral endopeptidase activity (%)
T1 construct: suspended in a 0.1% Triton X-100/0.2 M Tris-HCl buffer (pH: 8.0) and ultrasonically disrupted to use as an enzyme solution; host or cells: normal human fibroblasts, Triton X-100 lysate
Description: as §1, with “suspended in phosphate-buffered physiological saline,” for “suspended in physiological saline,”, “times with phosphate-buffered physiological saline.” for “times with physiological saline.”
The enzyme solution (2 μl), a solution (1 μl) of each subject compound and 20 mM glutaryl-Ala-Ala-Phe-4-methoxy-2-naphthylamine as a substrate for the measurement of enzyme activity were added to 100 μl of an MES buffer solution (100 mM, pH: 6.5), to which sodium chloride (300 mM) had been added, to conduct a reaction at 37° C. for 1 hour. The reaction was stopped by adding phosphoramidone so as to give a final concentration of 0.4 μM. Aminopeptidase M was added to the reaction mixture so as to give a final concentration of 20 mU, thereby conducting a reaction at 37° C. for 15 minutes. The amount of 4-methoxy-2-naphthylamine formed was determined by measuring a fluorescence intensity at an excitation wavelength of 340 nm and a fluorescence wavelength of 425 nm by means of a fluorescence spectrophotometer, thereby finding percent inhibition of neutral endopeptidase activity by the subject compound.

T1 sequence (P08473 whole entry): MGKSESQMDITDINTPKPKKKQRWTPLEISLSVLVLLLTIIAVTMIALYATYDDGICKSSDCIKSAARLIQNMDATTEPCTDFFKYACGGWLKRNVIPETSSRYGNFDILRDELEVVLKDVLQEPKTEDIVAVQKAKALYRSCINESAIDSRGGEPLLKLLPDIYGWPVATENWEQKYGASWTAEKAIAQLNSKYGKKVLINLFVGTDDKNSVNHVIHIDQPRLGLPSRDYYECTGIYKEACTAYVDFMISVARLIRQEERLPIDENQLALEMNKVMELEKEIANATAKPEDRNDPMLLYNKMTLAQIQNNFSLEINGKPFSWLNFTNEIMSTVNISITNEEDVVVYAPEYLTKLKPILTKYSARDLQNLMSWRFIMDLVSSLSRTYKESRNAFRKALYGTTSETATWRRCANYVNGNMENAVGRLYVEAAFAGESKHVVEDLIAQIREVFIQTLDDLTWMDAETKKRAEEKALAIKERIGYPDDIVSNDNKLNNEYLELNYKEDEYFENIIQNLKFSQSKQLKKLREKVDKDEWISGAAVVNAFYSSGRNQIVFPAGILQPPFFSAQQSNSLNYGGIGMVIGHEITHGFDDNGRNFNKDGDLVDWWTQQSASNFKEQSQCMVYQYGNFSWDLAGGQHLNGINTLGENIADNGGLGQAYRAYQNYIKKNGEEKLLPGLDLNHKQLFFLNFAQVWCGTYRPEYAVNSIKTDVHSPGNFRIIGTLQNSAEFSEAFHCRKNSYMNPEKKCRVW

SMILES	Percent inhibition of elastase activity (%) ([1]; 0.1 mM)	Percent inhibition of elastase activity (%) ([1]; 1 mM)	Percent inhibition of hair growth after 3 weeks from shaving (%) ([2]; 1 mM in 80% ethanol)	inhibition at 10 µM [3] [%]	Percent inhibition of hair growth after 3 weeks from shaving (%) ([2]; 10 mM in 80% ethanol)
O=C(O)CNC(=O)C(CS)Cc1ccccc1 (stereo not shown) [Compound 8]	89.6	–	71.6	96.3	–
O=C(O)CCNC(=O)C(CS)Cc1ccccc1 (stereo not shown) [Compound 7]	85.4	–	59.7	97.1	–
CC(C)CC(NP(=O)(O)OC1OC(C)C(O)C(O)C1O)C(=O)NC(Cc1c[nH]c2ccccc12)C(=O)O (stereo not shown) [Compound 1]	85.6	–	58.7	99	–

Second part, led by results:

Percent inhibition of elastase activity (%) ([1]; 0.1 mM)	Percent inhibition of elastase activity (%) ([1]; 1 mM)	SMILES	Percent inhibition of hair growth after 3 weeks from shaving (%) ([2]; 1 mM in 80% ethanol)	inhibition at 10 µM [3] [%]	Percent inhibition of hair growth after 3 weeks from shaving (%) ([2]; 10 mM in 80% ethanol)
90.2	–	CC(C)CC(NC(=O)C(CC(C)C)NP(=O)(O)CCc1ccccc1)C(=O)O (stereo not shown) [Compound 3]	64.8	–	–
82.1	–	CC(C)CC(NP(=O)(O)CCc1ccccc1)C(=O)NC(Cc1c[nH]c2ccccc12)C(=O)O (stereo not shown) [Compound 2]	59.1	98.8	–
–	68.4	CC(C)CC(NP(=O)(O)CCc1ccccc1)C(=O)NCC(=O)O (stereo not shown) [Compound 4]	–	–	60.5
